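Assay format: 96-well plates, 48-hour exposure. TGI: total growth inhibition.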
How the values were obtained:
Assay in all cases: DTP human tumour cell line panel, 48 h
786-0 renal = test system: 786-0 renal
A498 renal = test system: A498 renal
A549 NSCLC = test system: A549 NSCLC
ACHN renal = test system: ACHN renal
BT-549 breast = test system: BT-549 breast
COLO 205 colon = test system: COLO 205 colon
DU-145 prostate = test system: DU-145 prostate
HCC-2998 colon = test system: HCC-2998 colon
HCT-116 colon = test system: HCT-116 colon
HCT-15 colon = test system: HCT-15 colon
HL-60(TB) leukemia = test system: HL-60(TB) leukemia
HOP-62 NSCLC = test system: HOP-62 NSCLC
HOP-92 NSCLC = test system: HOP-92 NSCLC
HS 578T breast = test system: HS 578T breast
HT29 colon = test system: HT29 colon
IGROV1 ovarian = test system: IGROV1 ovarian
K-562 leukemia = test system: K-562 leukemia
KM12 colon = test system: KM12 colon
LOX IMVI melanoma = test system: LOX IMVI melanoma
M14 melanoma = test system: M14 melanoma
MALME-3M melanoma = test system: MALME-3M melanoma
MCF7 breast = test system: MCF7 breast
MDA-MB-231 breast = test system: MDA-MB-231 breast
MDA-N = test system: MDA-N
MOLT-4 leukemia = test system: MOLT-4 leukemia
NCI-H226 lung = test system: NCI-H226 lung
NCI-H23 lung = test system: NCI-H23 lung
NCI-H460 lung = test system: NCI-H460 lung
NCI-H522 lung = test system: NCI-H522 lung
NCI/ADR-RES ovarian = test system: NCI/ADR-RES ovarian
OVCAR-3 ovarian = test system: OVCAR-3 ovarian
OVCAR-4 ovarian = test system: OVCAR-4 ovarian
OVCAR-5 ovarian = test system: OVCAR-5 ovarian
PC-3 prostate = test system: PC-3 prostate
RPMI-8226 leukemia = test system: RPMI-8226 leukemia
RXF 393 renal = test system: RXF 393 renal
SF-268 CNS = test system: SF-268 CNS
SF-295 CNS = test system: SF-295 CNS
SF-539 CNS = test system: SF-539 CNS
SK-MEL-2 melanoma = test system: SK-MEL-2 melanoma
SK-MEL-28 melanoma = test system: SK-MEL-28 melanoma
SK-MEL-5 melanoma = test system: SK-MEL-5 melanoma
SK-OV-3 ovarian = test system: SK-OV-3 ovarian
SN12C renal = test system: SN12C renal
SNB-19 CNS = test system: SNB-19 CNS
SNB-75 CNS = test system: SNB-75 CNS
SR leukemia = test system: SR leukemia
SW-620 colon = test system: SW-620 colon
T-47D breast = test system: T-47D breast
TK-10 renal = test system: TK-10 renal
U251 CNS = test system: U251 CNS
UACC-257 melanoma = test system: UACC-257 melanoma
UACC-62 melanoma = test system: UACC-62 melanoma
UO-31 renal = test system: UO-31 renal
CAKI-1 renal = test system: CAKI-1 renal
CCRF-CEM leukemia = test system: CCRF-CEM leukemia
EKVX NSCLC = test system: EKVX NSCLC
OVCAR-8 ovarian = test system: OVCAR-8 ovarian
MDA-MB-435 = test system: MDA-MB-435

SMILES: COc1ccc2c(c1)N=C(N)n1c(nc3ccccc31)S2
- TGI (786-0 renal): 4.39 µM
- TGI (A498 renal): 80.6 µM
- TGI (A549 NSCLC): > 100 µM
- TGI (ACHN renal): > 100 µM
- TGI (BT-549 breast): > 100 µM
- TGI (COLO 205 colon): 26.1 µM
- TGI (DU-145 prostate): > 100 µM
- TGI (HCC-2998 colon): > 100 µM
- TGI (HCT-116 colon): 15.8 µM
- TGI (HCT-15 colon): > 100 µM
- TGI (HL-60(TB) leukemia): > 100 µM
- TGI (HOP-62 NSCLC): > 100 µM
- TGI (HOP-92 NSCLC): 53.2 µM
- TGI (HS 578T breast): > 100 µM
- TGI (HT29 colon): 15.9 µM
- TGI (IGROV1 ovarian): > 100 µM
- TGI (K-562 leukemia): > 100 µM
- TGI (KM12 colon): 36.2 µM
- TGI (LOX IMVI melanoma): > 100 µM
- TGI (M14 melanoma): 15.6 µM
- TGI (MALME-3M melanoma): > 100 µM
- TGI (MCF7 breast): > 100 µM
- TGI (MDA-MB-231 breast): 32.3 µM
- TGI (MDA-N): 16 µM
- TGI (MOLT-4 leukemia): > 100 µM
- TGI (NCI-H226 lung): > 100 µM
- TGI (NCI-H23 lung): 26.2 µM
- TGI (NCI-H460 lung): > 100 µM
- TGI (NCI-H522 lung): 25.9 µM
- TGI (NCI/ADR-RES ovarian): 86.7 µM
- TGI (OVCAR-3 ovarian): 90.4 µM
- TGI (OVCAR-4 ovarian): 38.9 µM
- TGI (OVCAR-5 ovarian): 23.9 µM
- TGI (PC-3 prostate): 69.1 µM
- TGI (RPMI-8226 leukemia): > 100 µM
- TGI (RXF 393 renal): 70.5 µM
- TGI (SF-268 CNS): > 100 µM
- TGI (SF-295 CNS): > 100 µM
- TGI (SF-539 CNS): > 100 µM
- TGI (SK-MEL-2 melanoma): 28.1 µM
- TGI (SK-MEL-28 melanoma): > 100 µM
- TGI (SK-MEL-5 melanoma): 20.8 µM
- TGI (SK-OV-3 ovarian): 95.4 µM
- TGI (SN12C renal): > 100 µM
- TGI (SNB-19 CNS): > 100 µM
- TGI (SNB-75 CNS): > 100 µM
- TGI (SR leukemia): > 100 µM
- TGI (SW-620 colon): > 100 µM
- TGI (T-47D breast): 76.7 µM
- TGI (TK-10 renal): > 100 µM
- TGI (U251 CNS): 29.4 µM
- TGI (UACC-257 melanoma): 38.1 µM
- TGI (UACC-62 melanoma): 76.7 µM
- TGI (UO-31 renal): 38.4 µM

SMILES: O=C1C(Br)=C(C2=CC(=P(c3ccccc3)(c3ccccc3)c3ccccc3)C=C2)C(=O)C(Br)=C1C1=CC(=P(c2ccccc2)(c2ccccc2)c2ccccc2)C=C1
- TGI (786-0 renal): > 100 µM
- TGI (A498 renal): > 100 µM
- TGI (A549 NSCLC): > 100 µM
- TGI (ACHN renal): > 100 µM
- TGI (BT-549 breast): > 100 µM
- TGI (CAKI-1 renal): > 100 µM
- TGI (CCRF-CEM leukemia): > 100 µM
- TGI (COLO 205 colon): > 100 µM
- TGI (DU-145 prostate): > 100 µM
- TGI (EKVX NSCLC): 34 µM
- TGI (HCT-116 colon): > 100 µM
- TGI (HL-60(TB) leukemia): > 100 µM
- TGI (HOP-62 NSCLC): > 100 µM
- TGI (HOP-92 NSCLC): 55.5 µM
- TGI (HS 578T breast): > 100 µM
- TGI (HT29 colon): > 100 µM
- TGI (IGROV1 ovarian): > 100 µM
- TGI (K-562 leukemia): > 100 µM
- TGI (KM12 colon): > 100 µM
- TGI (LOX IMVI melanoma): > 100 µM
- TGI (M14 melanoma): 25.1 µM
- TGI (MALME-3M melanoma): 34.1 µM
- TGI (MCF7 breast): > 100 µM
- TGI (MDA-MB-231 breast): > 100 µM
- TGI (MDA-N): > 100 µM
- TGI (MOLT-4 leukemia): > 100 µM
- TGI (NCI-H23 lung): > 100 µM
- TGI (NCI-H522 lung): 42.9 µM
- TGI (NCI/ADR-RES ovarian): > 100 µM
- TGI (OVCAR-3 ovarian): > 100 µM
- TGI (OVCAR-4 ovarian): > 100 µM
- TGI (OVCAR-5 ovarian): 31.7 µM
- TGI (OVCAR-8 ovarian): > 100 µM
- TGI (PC-3 prostate): > 100 µM
- TGI (RPMI-8226 leukemia): > 100 µM
- TGI (RXF 393 renal): > 100 µM
- TGI (SF-268 CNS): > 100 µM
- TGI (SF-295 CNS): > 100 µM
- TGI (SF-539 CNS): > 100 µM
- TGI (SK-MEL-2 melanoma): > 100 µM
- TGI (SK-MEL-28 melanoma): > 100 µM
- TGI (SK-MEL-5 melanoma): > 100 µM
- TGI (SK-OV-3 ovarian): > 100 µM
- TGI (SN12C renal): > 100 µM
- TGI (SNB-19 CNS): > 100 µM
- TGI (SNB-75 CNS): > 100 µM
- TGI (SR leukemia): > 100 µM
- TGI (SW-620 colon): 35 µM
- TGI (T-47D breast): > 100 µM
- TGI (TK-10 renal): > 100 µM
- TGI (U251 CNS): 30.6 µM
- TGI (UACC-257 melanoma): 95.1 µM
- TGI (UACC-62 melanoma): > 100 µM
- TGI (UO-31 renal): > 100 µM

SMILES: COc1ccc(-c2nc(N3CCCC3)no2)cc1
- TGI (786-0 renal): > 100 µM
- TGI (A498 renal): > 100 µM
- TGI (A549 NSCLC): > 100 µM
- TGI (ACHN renal): > 75 µM
- TGI (BT-549 breast): > 100 µM
- TGI (CAKI-1 renal): > 100 µM
- TGI (CCRF-CEM leukemia): > 71.5 µM
- TGI (COLO 205 colon): > 100 µM
- TGI (DU-145 prostate): > 100 µM
- TGI (EKVX NSCLC): > 100 µM
- TGI (HCC-2998 colon): > 100 µM
- TGI (HCT-116 colon): > 100 µM
- TGI (HCT-15 colon): > 100 µM
- TGI (HL-60(TB) leukemia): > 100 µM
- TGI (HOP-62 NSCLC): > 100 µM
- TGI (HOP-92 NSCLC): > 94 µM
- TGI (HS 578T breast): > 100 µM
- TGI (HT29 colon): > 100 µM
- TGI (IGROV1 ovarian): > 100 µM
- TGI (K-562 leukemia): > 100 µM
- TGI (KM12 colon): > 100 µM
- TGI (LOX IMVI melanoma): > 100 µM
- TGI (M14 melanoma): > 100 µM
- TGI (MALME-3M melanoma): > 100 µM
- TGI (MCF7 breast): > 100 µM
- TGI (MDA-MB-231 breast): > 100 µM
- TGI (MDA-MB-435): > 100 µM
- TGI (MDA-N): > 100 µM
- TGI (MOLT-4 leukemia): > 100 µM
- TGI (NCI-H226 lung): > 100 µM
- TGI (NCI-H23 lung): > 100 µM
- TGI (NCI-H460 lung): > 100 µM
- TGI (NCI-H522 lung): > 94.6 µM
- TGI (NCI/ADR-RES ovarian): > 100 µM
- TGI (OVCAR-3 ovarian): > 100 µM
- TGI (OVCAR-4 ovarian): > 100 µM
- TGI (OVCAR-5 ovarian): > 100 µM
- TGI (OVCAR-8 ovarian): > 100 µM
- TGI (PC-3 prostate): > 100 µM
- TGI (RPMI-8226 leukemia): > 100 µM
- TGI (RXF 393 renal): > 72.4 µM
- TGI (SF-268 CNS): > 100 µM
- TGI (SF-295 CNS): > 100 µM
- TGI (SF-539 CNS): > 100 µM
- TGI (SK-MEL-2 melanoma): > 100 µM
- TGI (SK-MEL-28 melanoma): > 100 µM
- TGI (SK-MEL-5 melanoma): > 100 µM
- TGI (SK-OV-3 ovarian): > 100 µM
- TGI (SN12C renal): > 100 µM
- TGI (SNB-19 CNS): > 100 µM
- TGI (SNB-75 CNS): > 94.8 µM
- TGI (SW-620 colon): > 100 µM
- TGI (T-47D breast): > 100 µM
- TGI (TK-10 renal): > 100 µM
- TGI (U251 CNS): > 100 µM
- TGI (UACC-257 melanoma): > 100 µM
- TGI (UACC-62 melanoma): > 100 µM
- TGI (UO-31 renal): > 100 µM

Source: PubChem BioAssay (NCI)
